Experimental data reported in PMC6151511, “Rational Design of Nucleoside–Bile Acid Conjugates Incorporating a Triazole Moiety for Anticancer Evaluation and SAR Exploration” (Molecules : A Journal of Synthetic Chemistry and Natural …, 2017).
“And” between values parts separate entries of the source, which are not always exact repeats. Equal entries are not always repeated. Where two headings read alike, the source gives them in different places.

What was measured:
[1] = system: Normal human skin fibroblast cells; design: method as in doi:10.1039/c3nj00513e; conditions: MTT; ref [6]; read-out: IC50 FIBRO; cited from earlier work
K562 leukemia cells [2] = system: K562 leukemia cells; design: method as in doi:10.1039/c3nj00513e; conditions: MTT; ref [6]; cited from earlier work
HCT116 colon carcinoma [3] = system: HCT116 colon carcinoma; design: method as in doi:10.1039/c3nj00513e; conditions: MTT; ref [6]; cited from earlier work
HCT116 colon carcinoma [4] = experiment: MTT assay, cell growth inhibition of HCT116 colon carcinoma; assay type: cell-based; conditions: MTT, 72 h incubation, mean of three independent experiments ± SD, IC50 > 50 means inhibition <20% at 50 μM
Protocol: (§1) All conjugated compounds prepared via click chemistry and listed in Table 1 were evaluated in vitro for their cytotoxic activity against K562 leukemia cells and the colon cancer cell line HCT116. Normal human skin fibroblast cells were chosen as a control and cisplatin served as a reference compound. The cytotoxicity was evaluated using the MTT assay (details are reported in the Materials and Methods section). In all experiments the cell growth inhibition of K562 and HCT116 was determined for each compound at concentrations of 10, 25 and 50 μM after 72 h of treatment and up to 100 μM in the case of fibroblasts.
(§2) Cell growth inhibition assays were carried out using the leukemia cell line K562 and colon carcinoma HCT116. Cell lines were obtained from ATCC (Manassas, VA, USA) and maintained in RPMI 1640, supplemented with 10% fetal bovine serum (FBS), penicillin (100 Units mL^−1), streptomycin (100 μg mL^−1) and glutamine (2 mM) (complete medium); the pH of the medium was 7.2 and the incubation was performed at 37 °C in a 5% CO2 atmosphere. Adherent cells were routinely used at 70% of confluence and passaged every 3 days by treatment with 0.05% Trypsin-EDTA (Lonza, Walkersville, MD, USA). K562 cells were routinely fed every 3 days.
(§3) The antiproliferative activity of the compounds was tested using the 3-(4,5-dimethylthiozol-2-yl)2,5-diphenyltetrazolium bromide solution (MTT) assay. K562 and HCT116 were seeded in triplicate in 96-well trays respectively at the density of 5 × 10^3 and 10^4 in 50 μL of complete medium. Stock solutions (50 mM) of each compound were made in DMSO and diluted in complete medium to give final concentrations of 50, 25 and 10 μM. Untreated cells were placed in every plate as a negative control. The cells were exposed to the compounds, in 100 μL total volume, for 72 h.

K562 leukemia cells [5] = experiment: MTT assay, cell growth inhibition of K562 leukemia cells; assay type: cell-based; conditions: MTT, 72 h incubation, mean of three independent experiments ± SD, IC50 > 50 means inhibition <20% at 50 μM, read-out: IC50 K562
Protocol: as §1, §2, §3

K562 cells = experiment: Annexin V-FITC/PI apoptosis assay by flow cytometry; assay type: cell-based; conditions: 25 and 50 μM, 24 h
Protocol: In this study we also tested in vitro the nucleoside-alkyne derivatives (namely ALK-A, ALK-G, ALK-dG and ALK-dU) and the N3-BA building blocks (namely 3α-N3-CDC, 3α-N3-UDC, 3α-N3-TUDCA, 23-N3-nor-CDC and 23-N3-nor-UDC). […] (Table 1). To determine whether the antiproliferative activity induced by dA-nor-CDC was related to apoptosis, as previously reported for the corresponding dA-CDC conjugate, K562 cells were treated with compound dA-nor-CDC (25 and 50 μM) for 24 h, then assayed by flow cytometry analysis with Annexin V-FITC staining.
The percentage of apoptotic cells was assessed using the Annexin V assay (Clontech Laboratories, Inc. A Takara Bio Company, Mountain View, CA, USA). Propidium iodide (PI) was used to avoid necrotic cell detection (Annexin−/PI+). The drug-induced apoptotic rate (Annexin+/PI− and Annexin V+/PI+) was compared with the apoptosis in the absence of the drugs used as control (spontaneous apoptosis). K562 cells were cultured in RPMI + 10% FBS in a 6-weels plate for 24 h in the presence of compounds dA-nor-CDC at concentration of 50 and 25 μM. […] Incubation with annexin V for 15 min on ice in dark was directly followed by flow cytometric analysis of the cells with a FACScan (Becton Dickinson, San Jose, CA, USA) at 488 nm and quantified using the Cell Quest Pro software (Becton Dickinson).

[6] = system: Normal human skin fibroblast cells; experiment: MTT assay, cytotoxicity on normal fibroblasts (control); assay type: cell-based; conditions: MTT, 72 h incubation, up to 100 μM, mean of three independent experiments ± SD, IC50 > 100 means inhibition <10% at 100 μM, read-out: IC50 FIBRO
Protocol: as §1, §3

[7] = Homo sapiens, Skin fibroblast, 72 h

**Q.** For `COC(=O)CCC(C)[C@H]1CCC2C3C(CC[C@@]21C)[C@@]1(C)CC[C@@H](n2cc(CCCCC#Cc4nc5c(N)ncnc5n4[C@H]4C[C@H](O)[C@@H](CO)O4)nn2)CC1C[C@@H]3O` (stereo partly shown) [dA-UDC], which IC50 [1] is on record?
**A.** The IC50 was greater than 200 µM.

**Q.** And the IC50 (K562 leukemia cells [2])?
**A.** Its IC50 is greater than 100 µM.

**Q.** And the IC50 (HCT116 colon carcinoma [3])?
**A.** Its IC50 is greater than 200 µM.

**Q.** Which results are given for `CC(CCn1cc(CCCCC#Cc2nc3c(N)ncnc3n2[C@H]2C[C@H](O)[C@@H](CO)O2)nn1)[C@H]1CCC2C3C(CC[C@@]21C)[C@@]1(C)CC[C@@H](O)CC1C[C@H]3O` (stereo partly shown) [dA-nor-CDC]?
**A.** IC50 (HCT116 colon carcinoma [4]; Homo sapiens, HCT-116, 72 h): ≤ 25 µM; IC50 (HCT116 colon carcinoma [4]): 17 ± 2.5 µM; IC50 (K562 leukemia cells [5]; Homo sapiens, K562, 72 h): ≤ 25 µM; IC50 (K562 leukemia cells [5]): 16.2 ± 2.2 µM; induction of apoptosis (in words) (K562 cells): induced apoptosis in a dose dependent manner; IC50 [6, 7]: ~100 µM; IC50 [6]: 91.5 ± 3.5 µM

**Q.** For `C#CCCCCC#Cc1nc2c(N)ncnc2n1[C@H]1C[C@H](O)[C@@H](CO)O1` [ALK-dA, 8-(1,7-Octadynyl)-2′-deoxyadenosine], which IC50 [1] is on record?
**A.** The IC50 was greater than 100 µM.

**Q.** And the IC50 (K562 leukemia cells [2])?
**A.** The IC50 was greater than 50 µM.

**Q.** And the IC50 (HCT116 colon carcinoma [3])?
**A.** Its IC50 is greater than 50 µM.

**Q.** With `COC(=O)CCC(C)[C@H]1CCC2C3C(CC[C@@]21C)[C@@]1(C)CC[C@@H](n2cc(CCCCC#Cc4nc5c(N)ncnc5n4[C@H]4C[C@H](O)[C@@H](CO)O4)nn2)CC1C[C@H]3O` (stereo partly shown) [dA-CDC] as the compound, how does the IC50 [1] read?
**A.** Its IC50 is greater than 200 µM.

**Q.** What about the IC50 (K562 leukemia cells [2]) of the same compound?
**A.** Its IC50 is 8.5 ± 4 µM.

**Q.** And the IC50 (HCT116 colon carcinoma [3])?
**A.** Its IC50 is greater than 200 µM.

**Q.** With `CC(CCN=[N+]=[N-])[C@H]1CCC2C3C(CC[C@@]21C)[C@@]1(C)CC[C@@H](O)CC1C[C@H]3O` (stereo partly drawn) [23-N3-nor-CDC, 3α,7α-Dihydroxy-5β-23-azido-24-norcholane] as the compound, how does the IC50 (HCT116 colon carcinoma [4]; Homo sapiens, HCT-116, 72 h) read?
**A.** Its IC50 is 25 ± 2 µM.

**Q.** And the IC50 (K562 leukemia cells [5]; Homo sapiens, K562, 72 h)?
**A.** Its IC50 is 21 ± 1.2 µM.

**Q.** And the IC50 [6, 7]?
**A.** Its IC50 is 79 ± 3.1 µM.

**Q.** With `CC(CCn1cc(CCCCC#Cc2nc3c(N)ncnc3n2C2OC(CO)C(O)C2O)nn1)C1CCC2C3C(O)CC4CC(O)CCC4(C)C3CCC12C` (stereo not shown) [A-nor-CDC] as the compound, how does the IC50 (HCT116 colon carcinoma [4]; Homo sapiens, HCT-116, 72 h) read?
**A.** Its IC50 is 44.1 ± 2.5 µM.

**Q.** What about the IC50 (K562 leukemia cells [5]) of the same compound?
**A.** Its IC50 is ≤ 25 µM and 23.6 µM.

**Q.** And the IC50 [6, 7]?
**A.** The IC50 was greater than 100 µM.

**Q.** What does the source list for `CC(CCn1cc(CCCCC#Cc2nc3c(=O)[nH]c(N)nc3n2[C@H]2C[C@H](O)[C@@H](CO)O2)nn1)[C@H]1CCC2C3C(CC[C@@]21C)[C@@]1(C)CC[C@@H](O)CC1C[C@@H]3O` (stereo partly shown) [dG-nor-UDC]?
**A.** IC50 (HCT116 colon carcinoma [4]; Homo sapiens, HCT-116, 72 h): > 50 µM; IC50 (K562 leukemia cells [5]; Homo sapiens, K562, 72 h): > 50 µM; IC50 [6, 7]: > 100 µM

**Q.** Which IC50 (HCT116 colon carcinoma [4]; Homo sapiens, HCT-116, 72 h) does the source give for `COC(=O)CCC(C)[C@H]1CCC2C3C(CC[C@@]21C)[C@@]1(C)CC[C@@H](n2cc(CCCCC#Cc4nc5c(=O)[nH]c(N)nc5n4[C@H]4C[C@H](O)[C@@H](CO)O4)nn2)CC1C[C@@H]3O` (stereo partly shown) [dG-UDC] here?
**A.** Its IC50 is greater than 50 µM.

**Q.** And the IC50 (K562 leukemia cells [5]; Homo sapiens, K562, 72 h)?
**A.** Its IC50 is greater than 50 µM.

**Q.** What about the IC50 [6, 7] of the same compound?
**A.** The IC50 was greater than 100 µM.
